Here are results for 1 compound from patent EP0061056A1, “5,6-Dimethylpyrrolo (2,3-b) pyridines, process for their preparation and their use as medicaments” (Troponwerke GmbH & Co. KG, priority 1981, dated 1982).

For the assay, the system named is Kaolinödem der Rattenpfote. Kind of assay: Kaolin-induced rat paw oedema (inhibition of inflammation). The format is in vivo, Ratte. The settings on record: kaolin oedema of the rat paw. As to the method: Die tierexperimentelle Prüfung der erfindungsgemäßen Verbindungen ergab, daß ein Teil dieser Substanzen sedative und antikonvulsive Eigenschaften besitzt. Darüber hinaus führen sie auch zu einer Hemmung der Entzündung, gemessen an der Beeinflussen des Pfotenödems der Ratte nach Kaolininjektion.
Bei oraler Applikation zeigen die erfindungsgemäßen Verbindungen eine signifikante entzündungshemmende Wirkung am Kaolinödem der Rattenpfote nach Gaben von 25 mg/kg. Bei intramuskulärer Applikation zeigen die Verbindungen bereits bei Dosierung von 10 mg/kg eine deutliche Hemmung der Entzündung. Für die Verbindung des Beispiels 1 beträgt die DE 50 bei oraler Applikation 68 mg/kg und die DE50 bei intramuskulärer Applikation 0,9 mg/kg.

Read-outs that look alike come from different tables or passages of the source.

On to `Cc1c(C)n(-c2ccccc2)c2nccc(N)c12` [Beispiel 1, 4-Amino-5,6-dimethyl-7-phenyl-pyrrolo[2,3-b]-7-pyridin], for which the ED50 came out at 0.9 mg/kg (im, intramuscular application, read-out: DE50 (the source's name)) and 68 mg/kg (oral application, read-out: DE 50 (the source's name)).
